Experiments:
[1] = test system: human airway epithelial cells (HAECs); assay: High-throughput sequencing (HTS) of miRNAs at four stages of differentiation of HAECs; conditions: for Modulation (ratio of the level of intensity of expression in log2 in two stages of differentiation) measured by high-throughput sequencing, D7 − D0 / Modulation (ratio of the level of intensity of expression in log2 in two stages of differentiation) measured by high-throughput sequencing, FC − D7 / Modulation (ratio of the level of intensity of expression in log2 in two stages of differentiation) measured by high-throughput sequencing, WD − D0 / Modulation (ratio of the level of intensity of expression in log2 in two stages of differentiation) measured by high-throughput sequencing, WD − FC / Level of intensity of expression in log2 measured by high-throughput sequencing, D0 / Level of intensity of expression in log2 measured by high-throughput sequencing, D7 / Level of intensity of expression in log2 measured by high-throughput sequencing, FC / Level of intensity of expression in log2 measured by high-throughput sequencing, WD: Table VI; for Level of intensity of expression in log2 At the differentiated stage (WD) measured in HTS: healthy human airway epithelial tissue; for Level of intensity of expression in log2 measured by high-throughput sequencing, D0: stage D0; for Level of intensity of expression in log2 measured by high-throughput sequencing, D7: stage D7; for Level of intensity of expression in log2 measured by high-throughput sequencing, FC: stage FC; for Level of intensity of expression in log2 At the differentiated stage (WD) measured in HTS / Level of intensity of expression in log2 measured by high-throughput sequencing, WD: stage WD; for Modulation (ratio of the level of intensity of expression in log2 in two stages of differentiation), D7 − D0 / Modulation (ratio of the level of intensity of expression in log2 in two stages of differentiation), FC − D7 / Modulation (ratio of the level of intensity of expression in log2 in two stages of differentiation), WD − FC / Abundance (%), D0 / Abundance (%), D7 / Abundance (%), FC / Abundance (%), WD: HTS; for Abundance (%), D0: ALI-D0; for Abundance (%), D7: ALI-D7; for Abundance (%), FC: ALI-FC; for Abundance (%), WD: ALI-WD
Outline: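 Differentiation time course at air-liquid interface: 0, 7, ~14 (first cilia) and ~21 days (fully differentiated). Sequencing counts per strand were normalized to 10^6 sequences and analysed by linear model with empirical Bayesian moderation.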

[2] = test system: human airway epithelial cells (HAECs); assay: Agilent miRNA chips, miRNA expression at four stages of differentiation of HAECs; conditions: for Modulation (ratio of the level of intensity of expression in log2 in two stages of differentiation) measured with the Agilent chips, D7 − D0 / Modulation (ratio of the level of intensity of expression in log2 in two stages of differentiation) measured with the Agilent chips, FC − D7 / Modulation (ratio of the level of intensity of expression in log2 in two stages of differentiation) measured with the Agilent chips, WD − D0 / Modulation (ratio of the level of intensity of expression in log2 in two stages of differentiation) measured with the Agilent chips, WD − FC / Level of intensity of expression in log2 measured with the Agilent chips, D0 / Level of intensity of expression in log2 measured with the Agilent chips, D7 / Level of intensity of expression in log2 measured with the Agilent chips, FC / Level of intensity of expression in log2 measured with the Agilent chips, WD: Table VI; for Modulation (ratio of the level of intensity of expression in log2 at two stages of differentiation), FC − D7 / Modulation (ratio of the level of intensity of expression in log2 at two stages of differentiation), WD − FC: Agilent miRNA chips, Table V; for Level of intensity of expression in log2 measured with the Agilent chips, D0: stage D0; for Level of intensity of expression in log2 measured with the Agilent chips, D7: stage D7; for Level of intensity of expression in log2 measured with the Agilent chips, FC: stage FC; for Level of intensity of expression in log2 measured with the Agilent chips, WD: stage WD
Outline: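 Expression was profiled on Human miRNA Microarray v2 chips covering 866 human and 89 human viral miRNAs from miRBase v12.0. Labelled HAEC RNA came from the same patients used for sequencing and was hybridized per kit protocol. Chip and sequencing results were compared.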

[3] = test system: basal cells and pyramidal cells of the airway epithelium; assay: miRNA expression in sorted basal cells versus pyramidal cells (ciliated + secretory), HTS and Agilent chips; set-up: species or system human; conditions: for Modulation of expression of the miRNAs in pyramidal cells (323(−)) relative to basal cells 323(+): HTS and Agilent chips; for Intensity of the level of expression in log2 in pyramidal cells (323(−)): pyramidal cells (ciliated + secretory)
Outline: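 Sorted basal versus ciliated/mucus-secreting cells; markers CD151 and tissue factor; donors n=3; miRNA by Agilent chip or HTS.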

Substance | Modulation (ratio of the level of intensity of expression in log2 in two stages of differentiation) measured by high-throughput sequencing, D7 − D0 [1] [log2] | Modulation (ratio of the level of intensity of expression in log2 in two stages of differentiation) measured by high-throughput sequencing, FC − D7 [1] [log2] | Modulation (ratio of the level of intensity of expression in log2 in two stages of differentiation) measured by high-throughput sequencing, WD − D0 [1] [log2] | Modulation (ratio of the level of intensity of expression in log2 in two stages of differentiation) measured by high-throughput sequencing, WD − FC [1] [log2] | Level of intensity of expression in log2 At the differentiated stage (WD) measured in HTS [1] [log2] | Level of intensity of expression in log2 measured by high-throughput sequencing, D0 [1] [log2] | Level of intensity of expression in log2 measured by high-throughput sequencing, D7 [1] [log2] | Level of intensity of expression in log2 measured by high-throughput sequencing, FC [1] [log2] | Level of intensity of expression in log2 measured by high-throughput sequencing, WD [1] [log2] | Modulation (ratio of the level of intensity of expression in log2 in two stages of differentiation) measured with the Agilent chips, D7 − D0 [2] [log2] | Modulation (ratio of the level of intensity of expression in log2 at two stages of differentiation), FC − D7 [2] [log2] | Modulation (ratio of the level of intensity of expression in log2 in two stages of differentiation) measured with the Agilent chips, FC − D7 [2] [log2] | Modulation (ratio of the level of intensity of expression in log2 in two stages of differentiation) measured with the Agilent chips, WD − D0 [2] [log2] | Modulation (ratio of the level of intensity of expression in log2 at two stages of differentiation), WD − FC [2] [log2] | Modulation (ratio of the level of intensity of expression in log2 in two stages of differentiation) measured with the Agilent chips, WD − FC [2] [log2] | Level of intensity of expression in log2 measured with the Agilent chips, D0 [2] [log2] | Level of intensity of expression in log2 measured with the Agilent chips, D7 [2] [log2] | Level of intensity of expression in log2 measured with the Agilent chips, FC [2] [log2] | Level of intensity of expression in log2 measured with the Agilent chips, WD [2] [log2] | Modulation of expression of the miRNAs in pyramidal cells (323(−)) relative to basal cells 323(+) [3] | further results
hsa-miR-200a: human miRNA, SEQ ID No. 16 (UAACACUGUCUGGUAACGAUGU; expressed or natural sequence; listed as Homo sapiens) | 1.00 | 0.67 | 2.20 | 0.54 | 10.96 | 9.02 | 10.01 | 10.68 | 11.22 | 1.94 | 0.20 | 0.20 | 2.20 | 0.06 | 0.06 | 8.64 | 10.58 | 10.79 | 10.84 | −0.95 | Intensity of the level of expression in log2 in basal cells (323(+)) [3]: 8.80 log2; Intensity of the level of expression in log2 in pyramidal cells (323(−)) [3]: 7.85 log2
hsa-miR-99a: human miRNA, SEQ ID No. 52 (AACCCGUAGAUCCGAUCUUGUG; expressed or natural sequence; listed as Homo sapiens) | 1.43 | 0.77 | 2.88 | 0.69 | 9.00 | 9.77 | 11.19 | 11.96 | 12.65 | 2.33 | 0.77 | 0.77 | 3.28 | 0.19 | 0.19 | 5.02 | 7.35 | 8.12 | 8.31 | 0.99 | Modulation (ratio of the level of intensity of expression in log2 in two stages of differentiation), D7 − D0 [1]: 1.43 log2; Modulation (ratio of the level of intensity of expression in log2 in two stages of differentiation), FC − D7 [1]: 0.77 log2; Modulation (ratio of the level of intensity of expression in log2 in two stages of differentiation), WD − FC [1]: 0.69 log2; Abundance (%), D0 [1]: 0.19%; Abundance (%), D7 [1]: 0.52%; Abundance (%), FC [1]: 0.85%; Abundance (%), WD [1]: 1.03%; Intensity of the level of expression in log2 in basal cells (323(+)) [3]: 5.42 log2; Intensity of the level of expression in log2 in pyramidal cells (323(−)) [3]: 6.40 log2
hsa-miR-23b: human miRNA, SEQ ID No. 26 (AUCACAUUGCCAGGGAUUACC; expressed or natural sequence; listed as Homo sapiens) | 1.30 | −0.17 | 1.29 | 0.16 | 9.35 | 14.06 | 15.35 | 15.18 | 15.35 | 1.96 | −0.27 | −0.27 | 1.72 | 0.04 | 0.04 | 8.92 | 10.88 | 10.61 | 10.64 | −2.23 | Modulation (ratio of the level of intensity of expression in log2 in two stages of differentiation), D7 − D0 [1]: 1.30 log2; Modulation (ratio of the level of intensity of expression in log2 in two stages of differentiation), FC − D7 [1]: −0.17 log2; Modulation (ratio of the level of intensity of expression in log2 in two stages of differentiation), WD − FC [1]: 0.16 log2; Abundance (%), D0 [1]: 3.73%; Abundance (%), D7 [1]: 9.19%; Abundance (%), FC [1]: 7.92%; Abundance (%), WD [1]: 6.72%; Intensity of the level of expression in log2 in basal cells (323(+)) [3]: 9.41 log2; Intensity of the level of expression in log2 in pyramidal cells (323(−)) [3]: 7.18 log2

Reference: patent US9023821B2, “Use of MicroRNA for treating diseases associated with a dysfunction of the cilia in multiciliated epithelial cells” (Centre National de la Recherche Scientifique, priority 2009, dated 2015)
